According to US8367709B2, “Dipeptide analogs as coagulation factor inhibitors” (priority 2007, dated 2013):
Structures can show the parent of a compound that is named as a salt.

molecular target: T1, purified human Factor XIa (Homo sapiens, UniProt P03951); assay: Factor XIa assay (chromogenic substrate S-2366 hydrolysis, Ki); type: biochemical; details: not given
T1 construct: purchased Haematologic Technologies
Protocol: The effectiveness of compounds of the present invention as inhibitors of the coagulation factors XIa, VIIa, IXa, Xa, XIIa, plasma kallikrein or thrombin, can be determined using a relevant purified serine protease, respectively, and an appropriate synthetic substrate. The rate of hydrolysis of the chromogenic or fluorogenic substrate by the relevant serine protease was measured both in the absence and presence of compounds of the present invention. […] A decrease in the rate of absorbance or fluorescence change in the presence of inhibitor is indicative of enzyme inhibition. Such methods are known to one skilled in the art. The results of this assay are expressed as the inhibitory constant, Ki.
Values of Ki were determined by allowing the protease to react with the substrate in the presence of the inhibitor. Reactions were allowed to go for periods of 20-180 minutes (depending on the protease) and the velocities (rate of absorbance or fluorescence change versus time) were measured. The following relationships were used to calculate Ki values:
vs/vo=A+((B−A)/1+((IC50/(I)^n))) and […]

T1 sequence (P03951 19-387): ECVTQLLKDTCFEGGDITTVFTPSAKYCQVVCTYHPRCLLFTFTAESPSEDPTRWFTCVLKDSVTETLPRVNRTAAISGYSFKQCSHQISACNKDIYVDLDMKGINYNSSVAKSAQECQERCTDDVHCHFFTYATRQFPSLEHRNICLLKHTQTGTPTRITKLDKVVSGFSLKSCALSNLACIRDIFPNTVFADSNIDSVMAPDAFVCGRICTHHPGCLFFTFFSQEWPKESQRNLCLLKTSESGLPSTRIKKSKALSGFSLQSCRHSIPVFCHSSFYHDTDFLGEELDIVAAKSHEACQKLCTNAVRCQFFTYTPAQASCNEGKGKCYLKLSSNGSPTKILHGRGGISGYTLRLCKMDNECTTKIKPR
T1 sequence (P03951 388-625): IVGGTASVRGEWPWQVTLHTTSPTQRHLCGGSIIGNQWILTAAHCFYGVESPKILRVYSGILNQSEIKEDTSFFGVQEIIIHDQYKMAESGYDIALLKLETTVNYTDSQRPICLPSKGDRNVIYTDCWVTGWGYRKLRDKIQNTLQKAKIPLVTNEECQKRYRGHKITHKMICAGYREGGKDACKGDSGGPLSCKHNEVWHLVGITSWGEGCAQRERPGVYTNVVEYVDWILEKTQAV

| Ki [nM] | Structure (SMILES) |
| --- | --- |
| 140 | CCOC(=O)Cc1ccc(NC(=O)[C@H](Cc2ccccc2)NC(=O)CCc2cc(Cl)ccc2-n2cnnn2)cc1 [Example 1, (S)-ethyl 2-(4-(2-(3-(5-chloro-2-(1H-tetrazol-1-yl)phenyl)propan-amideo)-3-phenylpropanamido)phenyl)acetate] |
| 63.9 | NCc1ccc(Cl)cc1/C=C/C(=O)N[C@@H](Cc1ccccc1)C(=O)Nc1ccc(C(=O)O)cc1 [Example 83, (S,E)-4-(2-(3-(2-(aminomethyl)-5-chlorophenyl)acrylamido)-3-phenylpropanamido)benzoic acid, TFA salt] |

The next lines start with the molecule.

| Structure (SMILES) | Ki [nM] |
| --- | --- |
| O=C(/C=C/c1c(F)ccc(Cl)c1F)N[C@@H](Cc1ccccc1)C(=O)Nc1ccc(C(=O)O)cc1 [Example 15, 4-{(S)-2-[(E)-3-(3-chloro-2,6-difluoro-phenyl)-acryloylamino]-3-phenyl-propionylamino}-benzoic acid] | 291 |
| C[C@H](NC(=O)/C=C/c1cc(Cl)ccc1-n1cnnn1)C(=O)Nc1ccc(CC(=O)O)cc1 [Example 51, (4-{(S)-2-[(E)-3-(5-chloro-2-tetrazol-1-yl-phenyl)-acryloylamino]-propionylamino}-phenyl)-acetic acid] | 317 |
| O=C(/C=C/c1c(F)ccc(Cl)c1F)N[C@@H](Cc1ccccc1)C(=O)Nc1ccc2cn[nH]c2c1 [Example 57, (E)-3-(3-chloro-2,6-difluoro-phenyl)-N—[(S)-1-(1H-indazol-6-ylcarbamoyl)-2-phenyl-ethyl]-acrylamide] | 3570 |
| COC(=O)c1ccc2nc(NC(=O)[C@H](Cc3ccccc3)NC(=O)/C=C/c3cc(Cl)ccc3-n3cnnn3)nn2c1 [Example 92, (S,E)-methyl 2-(2-(3-(5-chloro-2-(1H-tetrazol-1-yl)phenyl)acrylamido)-3-phenylpropanamido)-[1,2,4]triazolo[1,5-a]pyridine-6-carboxylate] | 53.9 |
| COC(=O)Nc1ccc2c(c1)CCN(C(=O)[C@H](Cc1ccccc1)NC(=O)/C=C/c1cc(Cl)ccc1-n1cnnn1)C2 [Example 127, (S,E)-methyl 2-(2-(3-(5-chloro-2-(1H-tetrazol-1-yl)phenyl)acrylamido)-3-phenylpropanoyl)-1,2,3,4-tetrahydroisoquinolin-6-ylcarbamate] | 7800 |
| O=C(/C=C/c1cc(Cl)ccc1-n1cnnn1)N[C@@H](Cc1ccccc1)C(=O)Nc1cccn2c(C(F)(F)F)nnc12 [Example 142, (S,E)-3-(5-chloro-2-(1H-tetrazol-1-yl)phenyl)-N-(1-oxo-3-phenyl-1-(3-(trifluoromethyl)-[1,2,4]-triazolo[4,3-a]pyridin-8-ylamino)propan-2-yl)acrylamide] | 3850 |

same assay, conditions: purified human Factor XIa 75-200 pM, substrate S-2366, 50 mM HEPES pH 7.4; read-out: Factor XIa Ki

| Ki [nM] | Structure (SMILES) |
| --- | --- |
| 672 | Nc1n[nH]c2cc(NC(=O)[C@H](Cc3ccccc3)NC(=O)C[S+]([O-])c3cc(Cl)ccc3-n3cnnn3)ccc12 (single isomer, unassigned; isomer b) [Example 133] |
| 2960 | COC(=O)Nc1ccc(NC(=O)[C@H](Cc2ccccc2)NC(=O)/C=C/c2cc(Cl)ccc2-n2cnnn2)c(Cl)c1 [Example 14, (3-chloro-4-{(S)-2-[(E)-3-(5-chloro-2-tetrazol-1-yl-phenyl)-acryloylamino]-3-phenyl-propionylamino}-phenyl)-carbamic acid methyl ester] |
| 12.7 | O=C(/C=C/c1cc(Cl)ccc1-n1cnnn1)N[C@@H](Cc1ccccc1)C(=O)Nc1ccc2[nH]ncc2c1 [Example 30, (E)-3-(5-chloro-2-tetrazol-1-yl-phenyl)-N—[(S)-1-(1H-indazol-5-ylcarbamoyl)-2-phenyl-ethyl]-acrylamide] |
| 33.9 | O=C(/C=C/c1cc(Cl)ccc1-n1cnnn1)N[C@@H](Cc1ccccc1)C(=O)Nc1ccc2c(=O)[nH][nH]c(=O)c2c1 [Example 36, (E)-3-(5-chloro-2-tetrazol-1-yl-phenyl)-N—[(S)-1-(1,4-dioxo-1,2,3,4-tetrahydro-phthalazin-6-ylcarbamoyl)-2-phenyl-ethyl]-acrylamide] |
| 244 | O=C(/C=C/c1cc(Cl)ccc1-n1cnnn1)N[C@@H](Cc1ccccc1)C(=O)Nc1ccc2c(c1)CCNC2 [Example 53, (E)-3-(5-chloro-2-tetrazol-1-yl-phenyl)-N—[(S)-2-phenyl-1-(1,2,3,4-tetrahydro-isoquinolin-6-ylcarbamoyl)-ethyl]-acrylamide] |
| 1480 | O=C(/C=C/c1cc(Cl)ccc1-n1cnnn1)N[C@@H](Cc1ccccc1)C(=O)Nc1ccc(N2CCSCC2)cc1 [Example 99, (S,E)-3-(5-chloro-2-(1H-tetrazol-1-yl)phenyl)-N-(1-oxo-3-phenyl-1-(4-thiomorpholinophenylamino)propan-2-yl)acrylamide, TFA salt] |
| 112 | COC(=O)c1ccc(NC(=O)[C@H](Cc2ccccc2)NC(=O)/C=C/c2cc(Cl)ccc2-n2cnnn2)nc1 [Example 103, (S,E)-methyl 6-(2-(3-(5-chloro-2-(1H-tetrazol-1-yl)phenyl)acrylamido)-3-phenylpropanamido)nicotinate, TFA salt] |
| 67.9 | O=C(/C=C/c1cc(Cl)ccc1-n1cnnn1)N[C@@H](Cc1ccccc1)C(=O)Nc1ccc2c(c1)C(=O)NC2 [Example 129, (S,E)-3-(5-chloro-2-(1H-tetrazol-1-yl)phenyl)-N-(1-oxo-1-(3-oxoisoindolin-5-ylamino)-3-phenylpropan-2-yl)acrylamide] |

Second part, the molecule before the results:

| Structure (SMILES) | Ki [nM] |
| --- | --- |
| O=C(/C=C/c1cc(Cl)ccc1-n1cnnn1)N[C@@H](Cc1ccccc1)C(=O)Nc1ncc(C(=O)O)s1 [Example 21, 2-{(S)-2-[(E)-3-(5-chloro-2-tetrazol-1-yl-phenyl)-acryloylamino]-3-phenyl-propionylamino}-thiazole-5-carboxylic acid] | 105 |
| O=C(/C=C/c1cc(Cl)ccc1-n1cnnn1)N[C@@H](Cc1cccc(F)c1)C(=O)Nc1ccc(-c2nnn[nH]2)cc1 [Example 43, (E)-3-(5-chloro-2-tetrazol-1-yl-phenyl)-N-{(S)-2-(3-fluoro-phenyl)-1-[4-(1H-tetrazol-5-yl)-phenylcarbamoyl]-ethyl}-acrylamide] | 1.61 |
| CN1CCN(C(=O)C[C@H](NC(=O)/C=C/c2cc(Cl)ccc2-n2cnnn2)C(=O)Nc2ccc(C(=O)O)cc2)CC1 [Example 45, 4-[(S)-2-[(E)-3-(5-chloro-2-tetrazol-1-yl-phenyl)-acryloylamino]-4-(4-methyl-piperazin-1-yl)-4-oxo-butyrylamino]-benzoic acid] | 33.4 |
| CC[C@H](NC(=O)/C=C/c1cc(Cl)ccc1-n1cnnn1)C(=O)Nc1ccc(NC(=O)OC)cc1 [Example 50, (4-{(S)-2-[(E)-3-(5-chloro-2-tetrazol-1-yl-phenyl)-acryloylamino]-butyrylamino}-phenyl)-carbamic acid methyl ester] | 1120 |
| O=C(/C=C/c1cc(Cl)ccc1-n1cnnn1)N[C@@H](Cc1ccccc1)C(=O)Nc1nc2ccc(F)cc2s1 [Example 97, (S,E)-3-(5-chloro-2-(1H-tetrazol-1-yl)phenyl)-N-(1-(6-fluorobenzo[d]thiazol-2-ylamino)-1-oxo-3-phenylpropan-2-yl)acrylamide] | 533 |
| O=C(/C=C/c1cc(Cl)ccc1-n1cnnn1)N[C@@H](Cc1ccccc1)C(=O)Nc1n[nH]c2ncccc12 [Example 137, (S,E)-N-(1-(1H-pyrazolo[3,4-b]pyridin-3-ylamino)-1-oxo-3-phenylpropan-2-yl)-3-(5-chloro-2-(1H-tetrazol-1-yl)phenyl)acrylamide, TFA salt] | 53.9 |
